Values of other authors as cited in patent publication US20040034042A1, “Preservative composition” (priority 2002, published 2004).

How the values were obtained:
[1] = system: Rhizopus, Penicillium and like fungi; details: literature statement; effects called insufficient
[2] = system: A. parasiticus

## Cn1c(=O)c2c(ncn2C)n(C)c1=O [caffeine]
[1]
  antibacterial activity to Rhizopus, Penicillium and like fungi: exhibits antibacterial activity
[2]
  production of aflatoxin by A. parasiticus: inhibits the production of aflatoxin
